Reference: patent publication US20260216294A1, “BETA 2-ADRENERGIC RECEPTOR AGONISTS FOR TREATMENT OR PREVENTION OF MUSCLE WASTING” (ATROGI AB, priority 2023, published 2026)

Legend:
[1] = test system: L6-myotubes; experiment: Glucose uptake in differentiated L6-myotubes (Biological Example 2); assay type: cell-based; conditions: for Emax at 10 µM: read-out: Biological example 2 (GU)
Description: (§1) Compounds described in publications referenced and incorporated herein were screened in accordance with the procedures outlined in Biological example 2 and Biological example 3.
Differentiated L6-myotubes were serum-starved overnight in medium containing 0.5% fatty-acid free BSA and stimulated with isoprenaline or the test compound, with a final concentration of 1×10^−5 M. After 1 h 40 min the cells were washed with warm glucose free medium or PBS twice and another portion of agonist was added to the glucose free medium. After 20 min the cells were exposed to 50 nM ^3H-2-deoxyglucose for 10 min before washed with ice cold glucose free medium or PBS three times and lysed with 0.2 M NaOH, 400 μL/well, for 1 h at 60° C. The cell lysate was mixed with 4 mL scintillation buffer (Emulsifier Safe, Perkin Elmer) and the radioactivity was detected in a […] (Tri-Carb 4810TR, Perkin Elmer).

[2] = test system: L6-myotubes; experiment: Measurement of intracellular cAMP levels in differentiated L6-myotubes (Biological Example 3); assay type: cell-based; conditions: for Emax at 10 µM: 0.25 h
Description: as §1
Differentiated L6-myotubes were serum-starved overnight and stimulated with isoprenaline or the test compound with a final concentration of 1×10^−5 M, for 15 min in stimulation buffer (HBSS supplemented with 1% BSA, 5 mM HEPES and 1 mM IBMX, pH 7.4). The medium was aspirated and 100 μL of 95% EtOH was added to each well of the 24-well plate and cells were kept at −20° C. overnight. The EtOH was allowed to evaporate and 500 μL of lysis buffer (1% BSA, 5 mM HEPES and 0.3% Tween-20, pH 7.4) was added to each well. The plate was kept at −80° C. for 30 min and then at −20° C. until the day of detection when the samples were thawed. Intracellular cAMP levels were detected using an alpha screen cAMP kit (6760635D from Perkin Elmer).

[3] = glucose uptake in differentiated L6-myotubes, compound at 10 μM, activity relative to isoproterenol at 10 μM
[4] = intracellular cAMP in differentiated L6-myotubes, compound at 10 μM, activity relative to isoproterenol at 10 μM
[5] = glucose uptake, compound at 10 μM relative to isoproterenol at 10 μM
[6] = intracellular cAMP, compound at 10 μM relative to isoproterenol at 10 μM

Row | SMILES | Emax at 10 µM [1, 3] [%] | Emax at 10 µM [2, 4] [%] | Emax at 10 µM [1, 5] [%] | Emax at 10 µM [2, 6] [%] | further results
1 | CC12CC(C1)[C@@H]([C@@H](O)c1cncc(F)c1)N2 [Compound 221, (S)-{(S)-1-methyl-2-azabicyclo[[2.1.1]]hex-3-yl}(5-fluoro-3-pyridyl)methanol] | 50 to 75 | < 25 | – | – | –
2 | CCC[C@H]1CCC[C@H]([C@H](O)c2cncc(F)c2)N1 [Compound 140] | – | – | < 25 | < 25 | –
3 | CCCC(C)(C)NC[C@H](O)c1cccc(F)c1 [Compound 61, (R)-2-(1,1-dimethylbutylamino)-1-(m-fluorophenyl)-1-ethanol] | – | – | > 75 | < 25 | –
4 | CO[C@H]1CC[C@H](CCC23CCC([C@@H](O)c4cccc(F)c4)(CC2)N3)CC1 [Compound 411] | – | – | – | – | Biological example 2 (GU) [1, 3]: +++ (If a compound at 10 μM shows activity of more than 75% of that of isoproterenol at 10 μM, the activity is denoted with +++); Biological example 3 (CAMP) [2, 4]: ++ (if it is between 75 and 50% it is denoted with ++)
5 | CC(C)(C[C@H]1CC[C@H](N)CC1)NC[C@H](O)c1cccc(C#N)n1 [Compound 417] | > 75 | 25 to 50 | – | – | –
6 | CC1(C)CCC[C@@H]([C@@H](O)c2cccc(F)c2)N1 [Compound 191] | – | – | 25 to 50 | < 25 | –
7 | CCCC(C)NCC(O)c1ccc(O)cc1 (stereo not drawn) [Compound 8, 1-(p-hydroxyphenyl)-2-(1-methylbutylamino)-1-ethanol] | – | – | 50 to 75 | 25 to 50 | –
8 | CC12CC(C1)[C@@H]([C@@H](O)c1cccc(F)c1)N2 [Compound 189] | – | – | 50 to 75 | < 25 | –
9 | CO[C@@H]1CCC[C@H](C(C)(C)NC[C@H](O)c2cccc(F)c2)C1 [Compound 255, (R)-2-{1-[(1S,3R)-3-methoxycyclohexyl]-1-methylethylamino}-1-(m-fluorophenyl)-1-ethanol] | > 75 | < 25 | – | – | –
10 | O[C@@H](c1cncc(F)c1)C12CCC(COCc3ccc(OC(F)(F)F)cc3)(CC1)N2 [Compound 489, (S)-(5-fluoro-3-pyridyl)(4-{[(p-trifluoromethoxyphenyl)methoxy]methyl}-7-azabicyclo[[2.2.1]]hept-1-yl)methanol] | < 25 | < 25 | – | – | –
11 | CCC[C@@H](C)NC[C@H](O)c1cccc(F)c1 [Compound 50, (R)-2-[(R)-1-methylbutylamino]-1-(m-fluorophenyl)-1-ethanol] | – | – | > 75 | < 25 | –
12 | O[C@@H](CNCC[C@H]1CC[C@H](OCc2ccccc2)CC1)c1cncc(F)c1 [Compound 292, (R)-1-(5-fluoro-3-pyridyl)-2-{2-[(1r,4R)-4-(benzyloxy)cyclohexyl]ethylamino}-1-ethanol] | < 25 | < 25 | – | – | –
13 | COc1ccc(C[C@@H]2CC[C@H]([C@@H](O)c3cccc(F)c3)N2)cc1 [Compound 372, (S)-{(2R,5S)-5-[(p-methoxyphenyl)methyl]-2-pyrrolidinyl}(m-fluorophenyl)methanol] | > 75 | < 25 | – | – | –
14 | CC(=O)N[C@H]1CC[C@H](C[C@@H]2CC[C@H]([C@@H](O)c3cccc(F)c3)N2)CC1 [Compound 486] | 50 to 75 | < 25 | – | – | –
15 | CC12CCC([C@@H](O)c3cccc(Cl)c3)(CC1)N2 [Compound 196, (S)-(m-chlorophenyl)(4-methyl-7-azabicyclo[[2.2.1]]hept-1-yl)methanol] | – | – | 25 to 50 | < 25 | –
16 | CCCCNC[C@H](O)c1cnc(N)nc1 [Compound 89, (R)-1-(2-amino-5-pyrimidinyl)-2-(butylamino)-1-ethanol] | – | – | 50 to 75 | < 25 | –
17 | CC1(C)CCC[C@@H]([C@@H](O)c2ccccc2F)N1 [Compound 192, (S)-[(S)-6,6-dimethyl-2-piperidyl](o-fluorophenyl)methanol] | – | – | 25 to 50 | < 25 | –
18 | CC12CC(C1)[C@H]([C@H](O)c1ccccc1F)N2 [Compound 210] | > 75 | > 75 | – | – | –
19 | CO[C@H]1CC[C@H](CNC[C@H](O)c2cccc(F)c2)CC1 [Compound 228, (R)-1-(m-fluorophenyl)-2-({[(1r,4R)-4-methoxycyclohexyl]methyl}amino)-1-ethanol] | 50 to 75 | < 25 | – | – | –

Row | SMILES | Emax at 10 µM [1, 3] [%] | Emax at 10 µM [2, 4] [%] | Emax at 10 µM [1, 5] [%] | Emax at 10 µM [2, 6] [%] | further results
20 | O[C@@H](c1cccc(F)c1)[C@H]1CC[C@@H](Cc2ccc(Cl)cc2)N1 [Compound 391, (S)-{(2R,5S)-5-[(p-chlorophenyl)methyl]-2-pyrrolidinyl}(m-fluorophenyl)methanol] | 50 to 75 | < 25 | – | – | –
21 | CCC[C@@H]1CCCC[C@H]([C@@H](O)c2cncc(F)c2)N1 [Compound 218, (S)-[(2R,7R)-7-propyl-2-azepanyl](5-fluoro-3-pyridyl)methanol] | < 25 | < 25 | – | – | –
22 | CCC[C@@H]1CCC[C@@H]([C@H](O)c2cccc(O)c2)N1 [Compound 136] | – | – | > 75 | < 25 | –
23 | CN(C)S(=O)(=O)[C@H]1CC[C@H](CC(C)(C)NC[C@H](O)c2cccc(F)c2)CC1 [Compound 464] | 25 to 50 | 25 to 50 | – | – | –
24 | CCC[C@@H]1CCC[C@H]([C@H](O)c2cccc(F)c2)N1 [Compound 59, (R)-[(2R,6R)-6-propyl-2-piperidyl](m-fluorophenyl)methanol] | – | – | 25 to 50 | < 25 | –
25 | CO[C@@H]1CCC[C@H](C(C)(C)NC[C@H](O)c2cncc(F)c2)C1 [Compound 257, (R)-2-{1-[(1S,3R)-3-methoxycyclohexyl]-1-methylethylamino}-1-(5-fluoro-3-pyridyl)-1-ethanol] | 50 to 75 | < 25 | – | – | –
26 | CC(=O)N[C@H]1CC[C@@H](CC(C)(C)NC[C@H](O)c2cncc(F)c2)CC1 [Compound 467] | > 75 | < 25 | – | – | –
27 | CO[C@H]1CC[C@H](CCNC[C@H](O)c2cncc(F)c2)CC1 [Compound 225, (R)-1-(5-fluoro-3-pyridyl)-2-{2-[(1r,4R)-4-methoxycyclohexyl]ethylamino}-1-ethanol] | 50 to 75 | < 25 | – | – | –
28 | O[C@@H](CNCC[C@H]1CC[C@H](O)CC1)c1cccc(F)c1 [Compound 298, (R)-1-(m-fluorophenyl)-2-{2-[(1r,4R)-4-hydroxycyclohexyl]ethylamino}-1-ethanol] | 25 to 50 | < 25 | – | – | –
29 | CCCCNCC(O)c1cccc(O)c1 (stereo not drawn) [Compound 15, 2-(butylamino)-1-(m-hydroxyphenyl)-1-ethanol] | – | – | 50 to 75 | < 25 | –
30 | O[C@H](c1cccc(F)c1)C12CCC(CCc3ccc(OC(F)(F)F)cc3)(CC1)N2 [Compound 546, (R)-(m-fluorophenyl){4-[2-(p-trifluoromethoxyphenyl)ethyl]-7-azabicyclo[[2.2.1]]hept-1-yl}methanol] | < 25 | < 25 | – | – | –
31 | COC(=O)[C@H]1CC[C@H](CCC(C)(C)NC[C@H](O)c2cccc(F)c2)CC1 [Compound 350, methyl (1R,4r)-4-{3-[(R)-2-(m-fluorophenyl)-2-hydroxyethylamino]-3-methylbutyl} cyclohexanecarboxylate] | > 75 | < 25 | – | – | –
32 | O[C@@H](CNCC[C@H]1CC[C@@H](O)CC1)c1cncc(F)c1 [Compound 293, (R)-1-(5-fluoro-3-pyridyl)-2-{2-[(1s,4S)-4-hydroxycyclohexyl]ethylamino}-1-ethanol] | 25 to 50 | < 25 | – | – | –
33 | Oc1ccc(C(O)CNCCCC(F)(F)F)cc1 (stereo not drawn) [Compound 31, 1-(p-hydroxyphenyl)-2-(4,4,4-trifluorobutylamino)-1-ethanol] | – | – | 50 to 75 | – | –
34 | O[C@@H](c1ccccc1F)C12CCC(CCc3cccnc3)(CC1)N2 [Compound 547, (S)-(o-fluorophenyl){4-[2-(3-pyridyl)ethyl]-7-azabicyclo[[2.2.1]]hept-1-yl}methanol] | > 75 | – | – | – | –
35 | CN([C@H]1CC[C@H](CC(C)(C)NC[C@H](O)c2cccc(F)c2)CC1)S(C)(=O)=O [Compound 499, (R)-2-{1,1-dimethyl-2-[(1r,4R)-4-(N-mesyl-N-methylamino)cyclohexyl]ethylamino}-1-(m-fluorophenyl)-1-ethanol] | 25 to 50 | – | – | – | –
36 | CC(C)NCC(O)c1ccc(O)c(O)c1 (stereo not drawn) [isoprenaline, reference compound] | – | – | – | – | glucose uptake ([1]; L6-myotubes, FIGS. 2a-2d): full glucose uptake response
37 | CCCCNCC(O)c1ccc(O)cc1 (stereo not drawn) [Compound 1, 2-(butylamino)-1-(p-hydroxyphenyl)-1-ethanol] | – | – | > 75 | – | –
